# Numbered stars: 1 amine (or outer) side, 2 acyl side, 3 side chain; on linkers, the order of the positions; unused ones are H or OH. Bridge positions count the residues as written; N and C are the ends. Square brackets hold non-standard residues; d marks the D form. Peptide text beside a SMILES is read from it. * marks the point of attachment. ξ: configuration not given here. X7 = O=C(CCP(=O)(O)CN1CCN(CP(=O)(O)CO)CCN(CP(=O)(O)CO)CC1)NCCSCc1cc(C[*:1])cc(C[*:2])c1; X11 = O=C(O)CN1CCN(CC(=O)O)CCN(C(CCC(=O)NCCSCc2cc(C[*:1])cc(C[*:2])c2)C(=O)O)CC1; X10 = O=C(O)CN1CCN(CC(=O)O)CCN(C(CCC(=O)NCCCOCCOCCOCCCN*)C(=O)O)CC1; mXylylene = c1cc(C[*:1])cc(C[*:2])c1; PEG6 = NCCOCCOCCOCCOCCOCCOCCC(=O)O; X29 = O=C(CN1CCN([*:1])CC1)[*:2]; Suc = O=C(CCC(=O)[*:2])[*:1]; Nle = CCCC[C@H](N)C(=O)O; X2 = NCCNCC(CNCCN)C(=O)*; Hexanoyl = CCCCCC(=O)*; ξC = NC(CS)C(=O)O; βAla = NCCC(=O)O
# Key:
# Human recombinant FAP = Human recombinant FAP (Homo sapiens, UniProt Q12884); assay: FRET-based FAP protease activity assay; assay type: biochemical; parameters: purchased R&D systems 3715-SE
# Human recombinant FAP, sequence (Q12884 whole entry): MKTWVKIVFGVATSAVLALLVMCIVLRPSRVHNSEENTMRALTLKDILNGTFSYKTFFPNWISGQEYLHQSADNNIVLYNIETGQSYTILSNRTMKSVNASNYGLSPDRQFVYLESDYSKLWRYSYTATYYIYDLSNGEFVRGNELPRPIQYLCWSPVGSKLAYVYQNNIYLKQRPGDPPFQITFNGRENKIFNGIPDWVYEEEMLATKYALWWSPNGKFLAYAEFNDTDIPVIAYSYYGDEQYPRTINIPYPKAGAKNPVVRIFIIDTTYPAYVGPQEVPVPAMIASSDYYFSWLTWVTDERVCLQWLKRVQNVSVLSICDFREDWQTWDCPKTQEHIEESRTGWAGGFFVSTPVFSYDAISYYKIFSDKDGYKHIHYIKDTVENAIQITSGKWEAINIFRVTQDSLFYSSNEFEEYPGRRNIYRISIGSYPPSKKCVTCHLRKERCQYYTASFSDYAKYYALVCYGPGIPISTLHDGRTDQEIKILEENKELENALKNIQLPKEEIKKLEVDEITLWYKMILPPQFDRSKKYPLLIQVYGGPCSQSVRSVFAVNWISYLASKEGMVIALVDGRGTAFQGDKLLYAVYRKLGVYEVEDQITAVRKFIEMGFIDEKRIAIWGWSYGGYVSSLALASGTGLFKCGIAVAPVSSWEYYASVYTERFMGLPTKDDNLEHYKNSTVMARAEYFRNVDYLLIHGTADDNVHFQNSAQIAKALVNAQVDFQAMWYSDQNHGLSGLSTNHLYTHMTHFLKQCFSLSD
# [1] = target: T1, FAP-expressing human WI-38 fibroblasts (Homo sapiens, UniProt Q12884); assay: Competitive FACS binding assay
# T1 construct: FAP-expressing human WI-38 fibroblasts (ECACC) were cultured in EMEM; host or cells: WI-38 human fibroblasts
# T1 sequence (Q12884 whole entry): as above
# Protocol: Cells were analyzed in an Attune NxT flow cytometer. […] […].
# Cells were analyzed in an Attune NxT flow cytometer. […]
# [2] = pIC50 Category (Activity), FRET-peptide substrate, 37° C.
# [3] = pIC50 Category (activity), Recombinant human FAP
# [4] = FAP-expressing human WI-38 fibroblasts
compound,measurement,setting,value
"CCCC[C@H](NC(=O)CCC(=O)NCCCOCCOCCOCCCNC(=O)CN1CCN(CC(=O)O)CCN(CC(=O)O)CCN(CC(=O)O)CC1)C(=O)N[C@H]1CSCc2cc(CSCCNC(=O)CN3CCN(CC(=O)O)CCN(CC(=O)O)CCN(CC(=O)O)CC3)cc(c2)CSC[C@@H](C(=O)N[C@@H](CC(=O)O)C(=O)NCCCOCCOCCOCCCNC(=O)CCC(=O)N[C@@H](CCCCNC(=O)CN2CCN(CC(=O)O)CCN(CC(=O)O)CCN(CC(=O)O)CC2)C(N)=O)NC(=O)[C@H](Cc2ccccc2)NC(=O)[C@H](CCC(N)=O)NC(=O)[C@H]([C@@H](C)O)NC(=O)[C@@H]2CCCN2C(=O)[C@@H]2CCCN2C1=O [3BP-4392, DOTA-Ttds-Nle-[Cys(tMeBn(DOTA-AET))-Pro-Pro-Thr-Gln-Phe-Cys]-Asp-Ttds-Lys(DOTA)-NH2]",IC50,Human recombinant FAP; [2],10 to 79.4 nM
same,IC50,[1],10 to 79.4 nM
"CCCC[C@H](NC(=O)CCC(=O)NCCCOCCOCCOCCCNC(=O)CN1CCN(CC(=O)O)CCN(CC(=O)O)CCN(CC(=O)O)CC1)C(=O)N[C@H]1CSCc2cccc(c2)CSC[C@@H](C(=O)N[C@@H](CC(=O)O)C(=O)NCCCOCCOCCOCCCNC(=O)CCC(=O)N[C@@H](CCCCNC(=O)CN2CCN(CC(=O)O)CCN(CC(=O)O)CCN(CC(=O)O)CC2)C(N)=O)NC(=O)[C@H](Cc2ccccc2)NC(=O)[C@H](CCC(N)=O)NC(=O)[C@H]([C@@H](C)O)NC(=O)[C@@H]2CCCN2C(=O)[C@@H]2CCCN2C1=O [3BP-4393, DOTA-Ttds-Nle-[Cys(3MeBn)-Pro-Pro-Thr-Gln-Phe-Cys]-Asp-Ttds-Lys(DOTA)-NH2]",IC50,Human recombinant FAP; [2],< 10 nM
same,IC50,[1],< 10 nM
"CCCCNC(=O)N[C@H]1CSCc2cccc(c2)CSC[C@@H](C(=O)N[C@@H](CCCCNC(=O)C(CNCCN)CNCCN)CC(=O)O)NC(=O)[C@H](Cc2ccccc2)NC(=O)[C@H](CCC(N)=O)NC(=O)[C@H]([C@@H](C)O)NC(=O)[C@@H]2CCCN2C(=O)[C@@H]2CCCN2C1=O [3BP-4589, nBu-CAyl-[Cys(3MeBn)-Pro-Pro-Thr-Gln-Phe-Cys]-Bhk(N4Ac)—OH]",IC50,Human recombinant FAP; [2],< 10 nM
same,IC50,[1],< 10 nM
"CCCCCC(=O)N[C@H]1CSCc2cc(CSCCNC(=O)CCC(C(=O)O)N3CCN(CC(=O)O)CCN(CC(=O)O)CC3)cc(c2)CSCC(C(=O)O)NC(=O)[C@H](Cc2ccccc2)NC(=O)[C@H](CCC(=O)O)NC(=O)[C@H]([C@@H](C)O)NC(=O)[C@@H]2CCCN2C(=O)[C@@H]2CCCN2C1=O (stereo partly drawn) [3BP-4695, Hex-[Cys(tMeBn(NODAGA-AET))-Pro-Pro-Thr-Glu-Phe-Cys]-OH] (Hexanoyl-CPPTEF[ξC]-OH; linker 1-7 via X11)",IC50,Human recombinant FAP; [3],10 to 79.4 nM
same,IC50,[1],10 to 79.4 nM
"CCCCCC(=O)N[C@H]1CSCc2cc(CSCCNC(=O)COCCOCCNC(=O)CCC(C(=O)O)N3CCN(CC(=O)O)CCN(CC(=O)O)CC3)cc(c2)CSCC(C(N)=O)NC(=O)[C@H](Cc2ccccc2)NC(=O)[C@H](CCC(N)=O)NC(=O)[C@H]([C@@H](C)O)NC(=O)[C@@H]2CCCN2C(=O)[C@@H]2CCCN2C1=O (stereo partly drawn) [3BP-4708, Hex-[Cys(tMeBn(NODAGA-O2Oc-AET))-Pro-Pro-Thr-Gln-Phe-Cys]-NH2]",IC50,Human recombinant FAP; [3],< 10 nM
same,IC50,[1],< 10 nM
"CCCCNC(=O)N[C@H]1CSCc2cc(CSCCNC(=O)CCC(C(=O)O)N3CCN(CC(=O)O)CCN(CC(=O)O)CC3)cc(c2)CSCC(C(=O)O)NC(=O)[C@H](Cc2ccccc2)NC(=O)[C@H](CCC(N)=O)NC(=O)[C@H]([C@@H](C)O)NC(=O)[C@@H]2CCCN2C(=O)[C@@H]2CCCN2C1=O (stereo partly drawn) [3BP-4723, nBu-CAyl-[Cys(tMeBn(NODAGA-AET))-Pro-Pro-Thr-Gln-Phe-Cys]-OH]",IC50,Human recombinant FAP; [3],< 10 nM
same,IC50,[1],< 10 nM
"CCCCCC(=O)N[C@H]1CSCc2cc(CSCCNC(=O)CCP(=O)(O)CN3CCN(CP(=O)(O)CO)CCN(CP(=O)(O)CO)CC3)cc(c2)CSCC(C(N)=O)NC(=O)[C@H](Cc2ccccc2)NC(=O)[C@H](CCC(N)=O)NC(=O)[C@H]([C@@H](C)O)NC(=O)[C@@H]2CCCN2C(=O)[C@@H]2CCCN2C1=O (stereo partly drawn) [3BP-4729, Hex-[Cys(tMeBn(NOPO-AET))-Pro-Pro-Thr-Gln-Phe-Cys]-NH2]",IC50,Human recombinant FAP; [3],< 10 nM
same,IC50,[1],< 10 nM
"CCCC[C@H](NC(=O)CCC(=O)NCCCOCCOCCOCCCNC(=O)CCC(C(=O)O)N1CCN(CC(=O)O)CCN(CC(=O)O)CC1)C(=O)N[C@H]1CSCc2cccc(c2)CSCC(C(N)=O)NC(=O)[C@H](Cc2ccccc2)NC(=O)[C@H](CCC(=O)O)NC(=O)[C@H]([C@@H](C)O)NC(=O)[C@@H]2CCCN2C(=O)[C@@H]2CCCN2C1=O (stereo partly drawn) [3BP-4743, NODAGA-Ttds-Nle-[Cys(3MeBn)-Pro-Pro-Thr-Glu-Phe-Cys]-NH2] ({X10-Suc}-[Nle]CPPTEF[ξC]-NH2; linker 2-8 via mXylylene)",IC50,Human recombinant FAP; [3],10 to 79.4 nM
same,IC50,[1],10 to 79.4 nM
"CCCC[C@H](NC(=O)CCNC(=O)CCOCCOCCOCCOCCOCCOCCNC(=O)C(CNCCN)CNCCN)C(=O)N[C@H]1CSCc2cccc(c2)CSC[C@@H](C(=O)O)NC(=O)[C@H](Cc2ccccc2)NC(=O)[C@H](CCC(=O)O)NC(=O)[C@H]([C@@H](C)O)NC(=O)[C@@H]2CCCN2C(=O)[C@@H]2CCCN2C1=O [3BP-4779, N4Ac-PEG6-Bal-Nle-[C(3MeBn)-PPTEFC]-OH] ({X2-PEG6-βAla}-[Nle]CPPTEFC-OH; linker 2-8 via mXylylene)",IC50,Human recombinant FAP; [3],> 1000 nM
same,IC50,[1],100 to 794 nM
"CCCC[C@H](NC(=O)CCOCCOCCOCCOCCOCCOCCNC(=O)CN1CCN(C(=O)C(CNCCN)CNCCN)CC1)C(=O)N[C@H]1CSCc2cccc(c2)CSC[C@@H](C(=O)O)NC(=O)[C@H](Cc2ccccc2)NC(=O)[C@H](CCC(=O)O)NC(=O)[C@H]([C@@H](C)O)NC(=O)[C@@H]2CCCN2C(=O)[C@@H]2CCCN2C1=O [3BP-4781, N4Ac-PPAc-PEG6-Nle-[Cys(3MeBn)-Pro-Pro-Thr-Glu-Phe-Cys]-OH] (X2-[X29][PEG6][Nle]CPPTEFC-OH; linker 4-10 via mXylylene)",IC50,Human recombinant FAP; [3],10 to 79.4 nM
same,IC50,[1],10 to 79.4 nM
"CCCC[C@H](NC(=O)CCNC(=O)CN1CCN(C(=O)C(CNCCN)CNCCN)CC1)C(=O)N[C@H]1CSCc2cccc(c2)CSC[C@@H](C(=O)O)NC(=O)[C@H](Cc2ccccc2)NC(=O)[C@H](CCC(=O)O)NC(=O)[C@H]([C@@H](C)O)NC(=O)[C@@H]2CCCN2C(=O)[C@@H]2CCCN2C1=O [3BP-4783, N4Ac-PPAc-Bal--Nle-[C(3MeBn)-PPTEFC]-OH] (X2-[X29][βAla][Nle]CPPTEFC-OH; linker 4-10 via mXylylene)",IC50,Human recombinant FAP; [3],> 1000 nM
same,IC50,[1],> 1000 nM
"CCCCCC(=O)N[C@H]1CSCc2cc(CSCCNC(=O)CCP(=O)(O)CN3CCN(CP(=O)(O)CO)CCN(CP(=O)(O)CO)CC3)cc(c2)CSC[C@@H](C(=O)O)NC(=O)[C@H](Cc2ccccc2)NC(=O)[C@H](CCC(=O)O)NC(=O)[C@H]([C@@H](C)O)NC(=O)[C@@H]2CCCN2C(=O)[C@@H]2CCCN2C1=O [3BP-4816, Hex-[C(tMeBn(GaNOPO-AET))-PPTEFC]-OH] (Hexanoyl-CPPTEFC-OH; linker 1-7 via X7)",pIC50 Category (activity),Human recombinant FAP; Recombinant human FAP,B (category B for pIC50 values between 7.1 and 8.0)
same,pIC50 Category (FACS),[1]; [4],B (category B for pIC50 values between 7.1 and 8.0)
"CCCCCC(=O)N[C@H]1CSCc2cc(CSCCNC(=O)CCP(=O)(O)CN3CCN(CP(=O)(O)CO)CCN(CP(=O)(O)CO)CC3)cc(c2)CSCC(C(=O)O)NC(=O)[C@H](Cc2ccccc2)NC(=O)[C@H](CCC(=O)O)NC(=O)[C@H]([C@@H](C)O)NC(=O)[C@@H]2CCCN2C(=O)[C@@H]2CCCN2C1=O (stereo partly drawn) [3BP-4818, Hex-[Cys(tMeBn(NOPO-AET))-Pro-Pro-Thr-Glu-Phe-Cys]-OH] (Hexanoyl-CPPTEF[ξC]-OH; linker 1-7 via X7)",IC50,Human recombinant FAP; [3],10 to 79.4 nM
same,IC50,[1],10 to 79.4 nM
"CCCCNC(=O)N[C@H]1CSCc2cc(CSCCNC(=O)CCP(=O)(O)CN3CCN(CP(=O)(O)CO)CCN(CP(=O)(O)CO)CC3)cc(c2)CSC[C@@H](C(=O)O)NC(=O)[C@H](Cc2ccccc2)NC(=O)[C@H](CCC(N)=O)NC(=O)[C@H]([C@@H](C)O)NC(=O)[C@@H]2CCCN2C(=O)[C@@H]2CCCN2C1=O [3BP-5260, nBu-CAyl-[C(tMeBn(GaNOPO-AET))-PPTQFC]-OH]",pIC50 Category (activity),Human recombinant FAP; Recombinant human FAP,A (pIC50 category A stands for pIC50 values >8.0)
same,pIC50 Category (FACS),[1]; [4],A (pIC50 category A stands for pIC50 values >8.0)
"CCCCCC(=O)N[C@H]1CSCc2cc(CSCCNC(=O)COc3ccc4nc3CN(CC(=O)O)CCN(CC(=O)O)CCN(CC(=O)O)C4)cc(c2)CSCC(C(=O)O)NC(=O)[C@H](Cc2ccccc2)NC(=O)[C@H](CCC(N)=O)NC(=O)[C@H]([C@@H](C)O)NC(=O)[C@@H]2CCCN2C(=O)[C@@H]2CCCN2C1=O (stereo partly drawn) [3BP-5273, Hex-[Cys(tMeBn(AcPCTA-AET))-Pro-Pro-Thr-Gln-Phe-Cys]-OH]",IC50,Human recombinant FAP; [3],< 10 nM
same,IC50,[1],< 10 nM
"CCCCCC(=O)N[C@H]1CSCc2cc(CSCCNC(=O)CN3CCN(CC(=O)O)CCN(CC(N)=O)CCN(CC(=O)O)CC3)cc(c2)CSCC(C(=O)O)NC(=O)[C@H](Cc2ccccc2)NC(=O)[C@H](CCC(N)=O)NC(=O)[C@H]([C@@H](C)O)NC(=O)[C@@H]2CCCN2C(=O)[C@@H]2CCCN2C1=O (stereo partly drawn) [3BP-5288, Hex-[Cys(tMeBn(LSC-AET))-Pro-Pro-Thr-Gln-Phe-Cys]-OH]",IC50,Human recombinant FAP; [3],< 10 nM
same,IC50,[1],< 10 nM
Hex-[Cys(3MeBn)-Pro-Pro-Thr-Glu-Phe-Cys]-Asp-Omp-Arg-NH2 [3BP-3302],pIC50 Category (activity),"Human recombinant FAP; FRET-based FAP protease activity assay, recombinant human FAP, 37° C.",A (pIC50 category A stands for pIC50 values >8.0)
same,pIC50 Category (FACS),"[1]; competition with 3 nM Cy5-labeled compound, WI-38 fibroblasts, 4° C., 1 hour",A (pIC50 category A stands for pIC50 values >8.0)

# — patent US20230212549A1, “COMPOUNDS COMPRISING A […] LIGAND AND USE THEREOF” (priority 2021, published 2023)
